# According to patent US20250221410A1, “SUBSTITUTED 2-C-AZINES AND SALTS THEREOF, AND USE THEREOF AS HERBICIDAL ACTIVE SUBSTANCES” (BAYER AKTIENGESELLSCHAFT, priority 2022, published 2025):
# What was measured:
# POLCO = assay: Post-emergence herbicidal efficacy at 80 g/ha, POLCO; type: in vivo, Polygonum convolvulus; conditions: visual rating about 3 weeks after treatment vs untreated controls
# Description: (§1) Seeds of monocotyledonous and dicotyledonous weeds and crop plants were placed in sandy loam in plastic or organic planting pots, covered with soil and cultivated in a greenhouse under controlled growth conditions. 2 to 3 weeks after sowing, the test plants were treated at the one-leaf stage. The compounds of the invention, formulated in the form of wettable powders (WP) or as emulsion concentrates (EC), were then sprayed onto the green parts of the plants as aqueous suspension or emulsion with addition of 0.5% additive at a water application rate of 600 l/ha (converted). After the test plants had been kept in the greenhouse under optimum growth conditions for about 3 weeks, the activity of the preparations was rated visually in comparison to untreated controls. For example, 100% activity=the plants have died, 0% activity=like control plants. Tables B1 to B10 below show the effects of selected compounds of the general formula (I) according to Table 1 on various harmful plants and an application rate corresponding to 80 g/ha, which were obtained by the experimental procedure mentioned above.
# [1] = system: AMARE: Amaranthus retroflexus; assay: Post-emergence herbicidal efficacy at 80 g/ha, AMARE; type: in vivo; conditions: visual rating about 3 weeks after treatment vs untreated controls
# In short: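 Sow in sandy loam and grow in the greenhouse for 2 to 3 weeks. Spray the green parts at the one-leaf stage with a WP or EC suspension or emulsion plus 0.5% additive at 600 l/ha water. Keep plants about 3 weeks, then score damage visually against controls.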
# [2] = system: AMARE: Amaranthus retroflexus; assay: Pre-emergence herbicide efficacy at 80 g/ha, AMARE; type: in vivo; conditions: scored visually after about 3 weeks
# In short: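 Percent activity (0% = as controls, 100% = plants dead) was read visually around 3 weeks post-treatment. Treatment: covering soil of sown pots sprayed with compound suspension or emulsion, 0.5% additive, water rate equal to 600 l/ha; pots then held in greenhouse.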
# VERPE: Veronica persica [3] = assay: Post-emergence herbicidal efficacy at 80 g/ha, VERPE; type: in vivo; conditions: visual rating about 3 weeks after treatment vs untreated controls
# Description: as §1
# VERPE: Veronica persica [4] = assay: Pre-emergence herbicide efficacy at 80 g/ha, VERPE; type: in vivo; conditions: scored visually after about 3 weeks
# Description: (§2) Seeds of monocotyledonous and dicotyledonous weed plants and crop plants were placed in plastic or organic planting pots and covered with soil. The compounds of the invention, formulated in the form of wettable powders (WP) or as emulsion concentrates (EC), were then applied to the surface of the covering soil as aqueous suspension or emulsion with addition of 0.5% additive at a water application rate equivalent to 600 l/ha. After the treatment, the pots were placed in a greenhouse and kept under good growth conditions for the test plants. After about 3 weeks, the efficacy of the preparations was scored visually in comparison with untreated controls as percentages. For example, 100% activity=the plants have died, 0% activity=like control plants. Tables D1 to D12 below show the effects of selected compounds of the general formula (I) according to Table 1 on various harmful plants and an application rate corresponding to 80 g/ha, which were obtained by the experimental procedure mentioned above.
# [5] = system: AMARE: Amaranthus retroflexus; assay: Pre-emergence herbicide efficacy at 1280 g/ha, AMARE; type: in vivo; conditions: visual scoring after about 3 weeks vs untreated controls
# In short: (§3)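 Compound applied pre-emergence in WP or EC form to the covering soil over sown seeds, in aqueous spray with 0.5% additive (600 L/ha water). After greenhouse culture for about 3 weeks, damage is rated visually from 0% (as control) to 100% (plants dead).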
# [6] = system: ALOMY: Alopecurus myosuroides; assay: Post-emergence herbicidal efficacy at 1280 g/ha, ALOMY; type: in vivo; conditions: rated visually after about 3 weeks vs untreated controls, 100% = plants have died, 0% = like control plants
# Description: (§4) Seeds of mono- and dicotyledonous weed plants were placed in plastic pots in sandy loam soil (doubly sown with in each case one species of mono- or dicotyledonous weed plants per pot), covered with soil and cultivated in a greenhouse under controlled growth conditions. 2 to 3 weeks after sowing, the test plants were treated at the one-leaf stage. The compounds of the invention, formulated in the form of wettable powders (WP) or as emulsion concentrates (EC), were applied to the green parts of the plants as aqueous suspension or emulsion with addition of 0.5% additive at a water application rate equivalent to 600 litres per hectare. After the test plants had been kept in the greenhouse under optimum growth conditions for about 3 weeks, the activity of the preparations was rated visually in comparison to untreated controls. For example, 100% activity=the plants have died, 0% activity=like control plants. Tables A1 to A12 below show the effects of selected compounds of the general formula (I) according to Table 1 on various harmful plants and at an application rate corresponding to 1280 g/ha, which were obtained by the trial procedure specified above.
# SETVI: Setaria viridis [7] = assay: Post-emergence herbicidal efficacy at 1280 g/ha, SETVI; type: in vivo; conditions: visual rating about 3 weeks after treatment vs untreated controls
# In short: (§5)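 Plants treated 2–3 weeks post-sowing, one-leaf stage, foliar spray of WP or EC preparations with 0.5% additive at a water rate equivalent to 600 L/ha. Kept under optimum greenhouse conditions ~3 weeks, then scored visually on a 0–100% scale.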
# [8] = system: ABUTH: Abutilon theophrasti; assay: Pre-emergence herbicide efficacy at 1280 g/ha, ABUTH; type: in vivo; conditions: visual scoring after about 3 weeks vs untreated controls
# In short: as §3
# STEME: Stellaria media [9] = assay: Post-emergence herbicidal efficacy at 1280 g/ha, STEME; type: in vivo; conditions: visual rating about 3 weeks after treatment vs untreated controls
# In short: as §5
# KCHSC: Kochia scoparia [10] = assay: Post-emergence herbicidal efficacy at 1280 g/ha, KCHSC; type: in vivo; conditions: visual rating about 3 weeks after treatment vs untreated controls
# In short: as §5
# VERPE: Veronica persica [11] = assay: Pre-emergence herbicide efficacy at 1280 g/ha, VERPE; type: in vivo; conditions: visual scoring vs untreated controls
# In short: as §3
# LOLRI: Lolium rigidum = assay: Post-emergence herbicidal efficacy at 1280 g/ha, LOLRI; type: in vivo; conditions: visual rating about 3 weeks after treatment vs untreated controls
# Description: as §4
# [12] = system: MATIN: Matricaria inodora; assay: Pre-emergence herbicide efficacy at 1280 g/ha, MATIN; type: in vivo; conditions: visual scoring after about 3 weeks vs untreated controls
# In short: as §3
# [13] = system: ECHCG: Echinochloa crus-galli; assay: Pre-emergence herbicide efficacy at 1280 g/ha, ECHCG; type: in vivo; conditions: visual scoring after about 3 weeks vs untreated controls
# In short: as §3
# [14] = system: DIGSA: Digitaria sanguinalis; assay: Pre-emergence herbicide efficacy at 1280 g/ha, DIGSA; type: in vivo; conditions: visual scoring after about 3 weeks vs untreated controls
# In short: as §3
# SETVI: Setaria viridis [15] = assay: Pre-emergence herbicide efficacy at 1280 g/ha, SETVI; type: in vivo; conditions: visual scoring vs untreated controls
# In short: as §3
# [16] = system: ECHCG: Echinochloa crus-galli; assay: Post-emergence herbicidal efficacy at 1280 g/ha, ECHCG; type: in vivo; conditions: rated visually after about 3 weeks vs untreated controls, 100% = plants have died, 0% = like control plants
# In short: as §5
# POAAN: Poa annua [17] = assay: Post-emergence herbicidal efficacy at 1280 g/ha, POAAN; type: in vivo; conditions: visual rating about 3 weeks after treatment vs untreated controls
# In short: as §5
# VERPE: Veronica persica [18] = assay: Post-emergence herbicidal efficacy at 1280 g/ha, VERPE; type: in vivo; conditions: visual rating about 3 weeks after treatment vs untreated controls
# In short: as §5
# [19] = system: ABUTH: Abutilon theophrasti; assay: Post-emergence herbicidal efficacy at 1280 g/ha, ABUTH; type: in vivo; conditions: rated visually after about 3 weeks vs untreated controls, 100% = plants have died, 0% = like control plants
# In short: as §5
# [20] = system: AMARE: Amaranthus retroflexus; assay: Post-emergence herbicidal efficacy at 1280 g/ha, AMARE; type: in vivo; conditions: rated visually after about 3 weeks vs untreated controls, 100% = plants have died, 0% = like control plants
# In short: as §5
# [21] = system: DIGSA: Digitaria sanguinalis; assay: Post-emergence herbicidal efficacy at 1280 g/ha, DIGSA; type: in vivo; conditions: rated visually after about 3 weeks vs untreated controls, 100% = plants have died, 0% = like control plants
# In short: as §5
# STEME: Stellaria media [22] = assay: Pre-emergence herbicide efficacy at 1280 g/ha, STEME; type: in vivo; conditions: visual scoring vs untreated controls
# In short: as §3
# POAAN: Poa annua [23] = assay: Pre-emergence herbicide efficacy at 1280 g/ha, POAAN; type: in vivo; conditions: visual scoring after about 3 weeks vs untreated controls
# In short: as §3
# KCHSC: Kochia scoparia [24] = assay: Pre-emergence herbicide efficacy at 1280 g/ha, KCHSC; type: in vivo; conditions: visual scoring after about 3 weeks vs untreated controls
# In short: as §3
# KCHSC: Kochia scoparia [25] = assay: Pre-emergence herbicide efficacy at 80 g/ha, KCHSC; type: in vivo; conditions: scored visually after about 3 weeks
# Description: as §2
smiles,measurement,setting,value
O=S(=O)(CCC(F)(F)F)Oc1c(F)cccc1Cc1ncc(Cl)cn1 [Example 1-16],Post-emergence efficacy against POLCO,POLCO,80%
same,Post-emergence efficacy against AMARE,[1],100%
same,Pre-emergence efficacy against AMARE in %,[2],100%
same,Post-emergence efficacy against VERPE,VERPE: Veronica persica [3],90%
same,Pre-emergence efficacy against VERPE in %,VERPE: Veronica persica [4],90%
"Fc1ccc(Oc2c(F)cccc2Cc2ncc(Cl)cn2)cc1 [Example 1-35, 5-Chloro-2-[3-fluoro-2-(4-fluorophenoxy)benzyl]pyrimidine]",Pre-emergence efficacy against AMARE,[5],100%
same,Post-emergence efficacy at 1280 g/ha against ALOMY in %,[6],90%
same,Post-emergence efficacy against SETVI,SETVI: Setaria viridis [7],90%
same,Pre-emergence efficacy against ABUTH,[8],90%
same,Post-emergence efficacy against STEME,STEME: Stellaria media [9],100%
same,Post-emergence efficacy against KCHSC,KCHSC: Kochia scoparia [10],100%
same,Pre-emergence efficacy against VERPE in %,VERPE: Veronica persica [11],100%
same,Post-emergence efficacy against LOLRI,LOLRI: Lolium rigidum,90%
same,Pre-emergence efficacy against MATIN,[12],90%
same,Pre-emergence efficacy against ECHCG,[13],90%
same,Pre-emergence efficacy against DIGSA,[14],90%
same,Pre-emergence efficacy against SETVI in %,SETVI: Setaria viridis [15],90%
same,Post-emergence efficacy at 1280 g/ha against ECHCG in %,[16],100%
same,Post-emergence efficacy against POAAN,POAAN: Poa annua [17],90%
same,Post-emergence efficacy against VERPE,VERPE: Veronica persica [18],100%
same,Post-emergence efficacy at 1280 g/ha against ABUTH in %,[19],100%
same,Post-emergence efficacy at 1280 g/ha against AMARE in %,[20],100%
same,Post-emergence efficacy at 1280 g/ha against DIGSA in %,[21],90%
same,Pre-emergence efficacy against STEME in %,STEME: Stellaria media [22],100%
same,Pre-emergence efficacy against POAAN,POAAN: Poa annua [23],90%
same,Pre-emergence efficacy against KCHSC,KCHSC: Kochia scoparia [24],100%
Clc1cnc(Cc2ccccc2Oc2ncc(Cl)cn2)nc1 [Example 1-50],Pre-emergence efficacy against KCHSC in %,KCHSC: Kochia scoparia [25],90%
same,Pre-emergence efficacy against AMARE in %,[2],90%
